Data as given in ChEMBL document CHEMBL1131551, “Carbocyclic frenolicin analogues: novel anticoccidial agents” (1998).

These compounds were tested on Eimeria (assay: In vitro ability to disrupt infectious activity of Eimeria sporozoites expressed as potency relative to frenolicin (B=1)).
Format: functional

Going from `O=C1CC2CCC3=C(C(=O)c4cccc(O)c4C3=O)C2O1` (stereo not drawn) to `O=C1C[C@H]2CCC3=C(C(=O)c4ccccc4C3=O)[C@H]2O1`, the Relative potency rises from 0.033 to 0.167.

Compound `CC(=O)OC1CCCC2=C1C(=O)c1ccccc1C2=O` (stereo not drawn) has a Relative potency of 0.001.
